Patent publication EP0358766A1, “METHOD OF STERILIZING PLANT ANTHERS” (VSESOJUZNY NAUCHNO-ISSLEDOVATELSKY INST. SELSKOKHOZYAISTV. …, priority 1988, dated 1989)

How the values were obtained:
[1] = system: Tritikale PRAG-109; experiment: Field test of gametocidal activity, triticale PRAG-109; assay type: in vivo; conditions: period V, 1% aqueous emulsion, 6 kg/ha in 600 l water; for Prozentsatz des Ansetzens von Samen bei freier Bestäubung: control = 100
Excerpt: (§1) Die gametozide Aktivität der erfindungsgemäßen Sterilisationsmittel war in Feldversuchen in verschiedenen bodenklimatischen Zonen mit Teilstücken von 10 m^2 Größe in dreibis viermaliger Wiederholung festgestellt. Jedes Sterilisationsmittel wurde mindenstens 5 Jahre lang geprüft.
(§2) Die Entwicklung der Perioden der Organogenese wird zytologisch überwacht. Die Behandlung von Pflanzen mit dem Sterilisationsmittel erfolgt am Anfang der fünften Periode der Organogenese nach Kupermann.
(§3) Mit dem Ährenschieben verwirklicht man die Isolierung von Hauptähren und anderen Stockwerken in Pergametbeuteln. Bei Weizen und Tritikale werden Einzelisolatoren benutzt. Bei Roggen schließt man je 1 Ähre von […] verschiedenen nebeneinander befindlichen Pflanzen unter einen gemeinsamen Isolator ein. Bei Hirse wird jede Rispe getrennt isoliert. Der Sterilitätsprozentsatz (X) für Weizen, Roggen, Tritikale und Hirse wird nach der Formel [formula] ermittelt.
(§4) Die Kornzahl in nicht isolierten Ähren von Kontrollpflanzen wird bedingt für 100 % Ansetzen bei freier Bestäubung angenommen.
(§5) Um zuverlässige Angaben zu erhalten, verwendet man 20 bis 25 Isolatoren je Wiederholung für Weizen und Tritikale, 10 bis 15 Isolatoren jeder Wiederholung für Roggen und Hirse.
Pflanzen von Tritikale PRAG-109 werden in der V.Periode der Organogenese (nach Kupermann) mit einer 1%igen wäßrigen Emulsion von 1,1,1,3-Tetrabromheptan, 1,1,3-Tribromheptan, 1,2,3-Tribrompropan bzw. 1,2-Dibrom-3-chlor- propan behandelt. Die Emulsion enthält 0,5 Masse% C12-C14--Kalziumalkylbenzolsulfonat und 0,01 Masse% Dodezylsulfat. Der Verbrauch an Präparat beträgt 6 kg/ha bei 600 1 Wasserdurchsatz. Als Kontrolle dienen Pflanzen, behandelt mit dem Verdünner ohne Sterilisationsmittel. Die Prüfergebnisse sind in der Tabelle 5 angegeben. Die gleichen Ergebnisse sind bei der Behandlung von Tritikale PRAG-109 in der VI. Periode der Organogenese erhalten.

[2] = system: diploidem Roggen Gibrid 1864/79; experiment: Field test of gametocidal activity, diploid rye Gibrid 1864/79; assay type: in vivo; conditions: period V, 1% aqueous emulsion, 6 kg/ha in 600 l water; for Prozentsatz des Ansetzens von Samen bei freier Bestäubung: control = 100
Excerpt: as §1, §2, §3, §4, §5
Pflanzen von diploidem Roggen Gibrid 1864/79 werden in der V. Periode der Organogenese mit einer l%igen wäßrigen Emulsion von 1,2,3-Tribrompropan, 1,2-Dibrompropan, 1,1,1,3--Tetrabromheptan, 1,1,3-Tribromheptan behandelt. Die Emulsion enthält 0,5 Masse% C12-C14-Kalziumalkylbenzolsulfonat und 0,01 Masse% Äthylenglykol. Der Verbrauch an Präparat beträgt 6 kg/ha bei 600 1 Wasserdurchsatz. Die Prüfergebnisse sind in der Tabelle 12 angegeben. Die gleichen Ergebnisse sind bei der Behandlung von diploidem Roggen Gibrid 1864/79 in der VI. Periode der Organogenese erhalten.

[3] = system: Sommerweizens Sorte Rodina; experiment: Field test of gametocidal activity, spring wheat Rodina; assay type: in vivo, Weizen; conditions: period V, 1% aqueous emulsion, 6 kg/ha in 600 l water; for Prozentsatz des Ansetzens von freier Bestäubung: control = 100
Excerpt: as §1, §2, §3, §4, §5
Pflanzen des Sommerweizens Sorte Rodina werden in der V.Periode der Organogenese (nach Kupermann) mit einer l%igen wäßrigen Emulsion von 1,3-Dibrompropan, 1,1,1,3-Tetrabromheptan, 1,1,3-Tribromheptan bzw. 1,2-Dibromheptan behandelt. Die Emulsion enthalt 0,5 Masse% C12-C14 Kalziumalk^ylbenzol- sulfonat und 0,01 Masse% Dodezylsulfat. Der Verbrauch an Präparat beträgt 6 Kg/ha bei 600 1 Wasserdurchsatz. Als Kontrolle dienen Pflanzen, behandelt mit dem Verdünner ohne Sterilisationsmittel.
Die Prüfergebnisse sind in der Tabelle 3 angegeben. Die gleichen Ergebnisse sind bei der Behandlung des Sommerweizens Sorte Rodina in der VI. Periode der Organogenese erhalten.

[4] = system: tetraploidem Roggen Belta; experiment: Field test of gametocidal activity, tetraploid rye Belta; assay type: in vivo; conditions: period V, 1% aqueous emulsion, 6 kg/ha in 600 l water; for Prozentsatz des Ansetzens von Samen bei freier Bestäubung: control = 100
Excerpt: as §1, §2, §3, §4, §5
Pflanzen von tetraploidem Roggen Belta werden in der V.Periode der Organogenese (nach Kupermann) mit einer 1%igen wäßrigen Emulsion von 1,1,3-Tribrompropan, 1,1,3--Tribrom-4-chlorbutan, 1,1,2,3-Tetrabrompropan, 1,2,3-Tribrompropan, 1,1,3-Tribrom-3-chlorpropan bzw. 1,2-Dibrom--3-chlorpropan behandelt.
Die Emulsion enthält 0,5 Masse% C12-C14-Kalziumalk^yl-benzolsulfonat und 0,01 Masse% Dimethylsulfoxid. Der Verbrauch an Präparat beträgt 6 kg/ha bei 600 1 Wasserdurchsatz.Die Prüfergebnisse sind in der Tabelle 7 angegeben. Die gleichen Ergebnisse sind bei der Behandlung von tetraploidem Roggen Belta in der VI. Periode der Organogenese erhalten.

[5] = system: Sonnenblume Sorte Peredovik; experiment: Field test of pollen sterilisation, sunflower Peredovik; assay type: in vivo
Excerpt: as §1, §2
Zur Kontrolle der chemischen Sterilisation des Sonnenblumenpollens werden für jede Verbindung 45 behandelte Pflanzen je Wiederholung benutzt, wobei 15 Pflanzen zwecks Selbstbestäubung des Blütenkörbchens isoliert werden, 15 Pflanzen mit einem Pollengemisch, gesammelt von 20 bis 25 behandelten isolierten Körbchen, bestäubt werden, und 15 Pflanzen für freie Bestäubung gelassen werden, damit das Ansetzen von Achänen mit dem Pollen der Vaterform kontrolliert worden kann.
Man beurteilt die Pollensterilität von Pflanzen der Sonnenblume nach der Pollenfertilität und -keimfähigkeit, nach den morphologischen Besonderheiten von Spermien und nach der Fähigkeit von Achänen […] bei der Bestäubung der behandelten isolierten Pflanzen mit dem Pollen der unbehandelten väterlichen Form. Die Lebensfähigkeit der Eizelle wird nach der Samenbildung bei behandelten Pflanzen bei freier Bestäubung der väterlichen Form bestimmt.
Pflanzen der Sonnenblume Sorte Peredovik werden in der V. Periode der Organogenese (nach Kupermann) mit einer 0,2%igen wäßrigen Emulsion von 1,1,3-Tribrompropan, 1,2--Dibrompropan behandelt. Die Emulsion enthält 0,5 Masse% C12-C14-Kalziumalkylbenzolsulfonat und 0,01 Masse% Dimethylsulfoxid als Adjuvans. Der Verbrauch an Präparat beträgt 1,2 kg/ha bei 600 1 Wasserdurchsatz. Die Prüfergebnisse sind in der Tabelle 16 angegeben. Die gleichen Ergebnisse sind bei der Behandlung der Sonnenblume Sorte Peredovik in der VI. Periode der Organogenese erhalten.
Man verfährt analog den Beispielen 85 und 86. Als Sterilisationsmittel dient eine 0,1%ige wäßrige Emulsion von 1,2-Dibrom-3-chlorpropan. Der Verbrauch an Präparat beträgt […]. Die Prüfergebnisse sind in der Tabelle 16 angegeben.

[6] = system: tetraploidem Roggen Gibrid 67; experiment: Field test of gametocidal activity, tetraploid rye Gibrid 67; assay type: in vivo; conditions: period V, 1% aqueous emulsion, 10 kg/ha; for Prozentsatz des Ansetzens von Samen bei freier Bestäubung: control = 100
Excerpt: as §1, §2, §3, §4, §5
Pflanzen von tetraploidem Roggen Gibrid 67 werden in der V.Periode der Organogenese mit einer l%igen wäßrigen Emulsion von 1,2,3-Tribrompropan, 1,2-Dibrompropan bzw. 1,2-Dibrom-3-chlorpropan behandelt. Die Emulsion enthält 0,5 Masse% C12-C14-Kalziumalkylbenzolsulfonat und 0,01 Masse% Dimethylsulfoxid. Der Verbrauch an Präparat beträgt 10 kg/ha. Die Prüfergebnisse sind in der Tabelle 10 angegeben. Die gleichen Ergebnisse sind bei der Behandlung von tetraploidem Roggen Gibrid 67 in der VI. Periode der Organogenese erhalten.

[7] = period V, 0.2% aqueous emulsion, 1.2 kg/ha in 600 l water
[8] = 0.1% aqueous emulsion, 1.0 kg/ha

SMILES	Kornzahl der Ähre bei freier Bestäubung [1]	Kornzahl der Ähre im Isolator [1]	Prozentsatz der Sterilität [1]	Prozentsatz des Ansetzens von Samen bei freier Bestäubung [1]	Kornzahl der Ähre bei freier Bestäubung [2]	Kornzahl der Ähre unter Isolator [2]	Prozentsatz der Sterilität [2]	Prozentsatz des Ansetzens von Samen bei freier Bestäubung [2]	Kornzahl der Ähre bei freier Bestäubung [3]	Kornzahl der Ähre im Isolator [3]	Prozentsatz der Sterilität [3]	Prozentsatz des Ansetzens von freier Bestäubung [3]	Kornzahl der Ähre bei freier Bestäubung [4]	Kornzahl der Ähre im Isolator [4]	Prozentsatz der Sterilität [4]	Prozentsatz des Ansetzens von Samen bei freier Bestäubung [4]	Kornzahl der Ähre bei freier Bestäubung [6]	Kornzahl der Ähre im Isolator [6]	Prozentsatz der Sterilität [6]	Prozentsatz des Ansetzens von Samen bei freier Bestäubung [6]	also measured
CCCCC(Br)CC(Br)Br (centres unmarked) [Beispiel 10, 1,1,3-Tribromheptan]	59,6	0,0	100,0%	86,4%	52,6	0,0	100,0%	109,8%	33,8	0,0	100,0%	83,7%									
CCCCC(Br)CC(Br)(Br)Br (centres unmarked) [Beispiel 9, 1,1,1,3-Tetrabromheptan]	61,8	0,0	100,0%	89,6%	49,2	0,0	100,0%	103,0%	35,4	0,0	100,0%	87,6%									
BrCCC(Br)Br [Beispiel 1, 1,1,3-Tribrompropan]													34,5	1,2	97,0%	78,1%					Ansetzen bei freier Bestäubung in % [5, 7]: 78,7%; Ansetzen im Isolator bei Pollengemischbestäubung in % [5, 7]: 0,0%; Pollenleistung in % [5, 7]: 30,0%; Pollensterilität in % [5, 7]: 100,0%
CCCCCC(Br)CBr (centres unmarked) [Beispiel 11, 1,2-Dibromheptan]									32,7	0,0	100,0%	80,9%									
BrCC(Br)CBr [Beispiel 4, 1,2,3-Tribrompropan]	40,5	0,2	99,5%	88,4%	42,1	0,0	100,0%	88,0%					42,0	0,0	100,0%	95,0%	40,6	0,6	98,6%	82,0%	
CC(Br)CBr (centres unmarked) [Beispiel 5, 1,2-Dibrompropan]					46,4	0,0	100,0%	97,1%									42,7	0,2	99,5%	86,3%	Ansetzen bei freier Bestäubung in % [5, 7]: 84,5%; Ansetzen im Isolator bei Pollengemischbestäubung in % [5, 7]: 0,0%; Pollenleistung in % [5, 7]: 13,1%; Pollensterilität in % [5, 7]: 100,0%
ClCC(Br)CBr (centres unmarked) [Beispiel 7, 1,2-Dibrom-3-chlorpropan]	42,6	1,1	97,3%	93,0%									37,4	0,0	100,0%	84,6%	45,2	0,0	100,0%	91,3%	Ansetzen bei freier Bestäubung in % [5, 8]: 81,4%; Ansetzen im Isolator bei Pollengemischbestäubung in % [5, 8]: 0,0%; Pollenleistung in % [5, 8]: 0,0%; Pollensterilität in % [5, 8]: 100,0%
